The record followed here is patent publication US20070059242A1, “METHODS TO IDENTIFY THERAPEUTIC AGENTS” (priority 2005, published 2007).

Data set [1] in a line: Aldolization of ketoaldehyde 4a with amino acids (1H NMR). Type of data set: physicochemical. The method, then: Aldolization of ketoaldehyde 4a with amino acids. […] To this solution was added 1 equivalent of either: a) L-proline, b) glycine, c) L-lysine hydrochloride or d) L-lysine ethyl ester dihydrochloride. At time points the samples were analyzed by ^1H NMR.
Data set [2] in a line: Aldolization of 4a with atherosclerotic artery and blood fractions (1H NMR). Type of data set: in vitro ADME, human. The procedure: Aldolization of secoketoaldehyde 4a with atherosclerotic artery and blood fractions. […] To this solution was added either a) atherosclerotic artery (2.1 mg) that had been homogenized in PBS (1 ml) in a tissue homogenizer and then lyophilized to dryness, b) lyophilized human blood (1 ml), c) lyophilized human plasma (1 ml) or d) PBS lyophilized (1 ml). At time points samples were removed and analyzed by ^1H NMR vide supra.

In data set [3] the test system is T-lymphocyte cell line (Jurkat E6.1). In words: LDH release cytotoxicity assay, Jurkat. Type of data set: cell-based. The note with it: Homo sapiens; Jurkat E6.1; LDH release, 0-100 μM, 18 h. The procedure: Cytotoxicity assays. WI-L2 human B-lymphocyte line, HAAE-1 human abdominal aortic endothelial line, MH-S murine alveolar macrophage line, and J774A.1 murine tissue macrophage line were obtained from the ATCC. Human aortic endothelial cells (HAEC) and human vascular smooth muscle cells (VSMS) were obtained from Cambrex Bio Science. Jurkat E6-1T-lymphocytes were kindly provided by Dr. J. Kaye (The Scripps Research Institute). Cells were cultured in ATCC-recommended media with 10% fetal calf serum. Cells were incubated in a controlled atmosphere at 37° C., with 5 or 7% CO2. For lactate dehydrogenase (LDH) release assays, adherent cells were harvested either by addition of 0.05% trypsin/EDTA or by scraping. The cells obtained were seeded onto 96-well microtiter plates (25,000 cells/well) and allowed to recover for 24-48 h. […] Cytotoxicity was then determined by measuring lactate dehydrogenase (LDH) release from cells in culture. […] 100% Cytotoxicity was defined as the maximum amount of LDH released by dead cells as shown by trypan blue exclusion, or the highest amount of LDH detected upon lysis of cells by 0.9% Triton X-100. The IC50 values were determined by comparison of the raw duplicate data for concentration versus cytotoxicity (%) to non-linear regression analysis (Hill plot) using Graphpad v3.0 software for Macintosh. […]

A short description of data set [4]: Loss of extractable 5a from stored plasma. To be noted: preliminary investigations. The method, then: Plasma samples were obtained from patients (n=8) who were scheduled to undergo carotid endarterectomy within 24 h. […] Control plasma samples were obtained from random patients (n=15) attending a general medical clinic and were analyzed 7 days after collection. In a typical procedure, plasma in EDTA (1 ml) was washed with dichloromethane (DCM, 3×1 mL). The combined organic fractions were evaporated in vacuo. The residue was dissolved in methanol (0.9 mL) and a solution of 2,4-dinitrophenyl hydrazine (100 μL, 0.01 M, Lancaster) and 1N HCl in ethanol was added. Nitrogen was bubbled through the solution for 5 min and then the solution was stirred for 2 h. The resultant solution was filtered through a 0.22 μm filter and the filtrate was analyzed by the HPLC assay vide supra.

Regarding `CC(C)CCC[C@@H](C)[C@H]1CCC2C(CC=O)C([C@@]3(C)CC[C@H](O)CC3=O)CC[C@@]21C` (stereo partly drawn) [4a, 3β-Hydroxy-5-oxo-5,6-secocholestan-6-al], the “aldolization of 4a” value in data set [1] (DMSO-d6 (800 μl) and D2O (80 μl) alone) is reported as “no aldolization”; in data set [2] (lyophilized PBS), “no aldolization”. Further, the “conversion of 4a into 5a” value is on record as “complete conversion” in data set [1] (Gly, 24 h); 62% in data set [1] (L-Lys(OEt).2HCl, 100 h); “complete conversion” in data set [1] (L-Lys.HCl, 24 h); “complete conversion” in data set [1] (L-Pro, 2 h); “complete conversion” in data set [2] (extracts from atheromatous arteries, 22 h); “complete conversion” in data set [2] (plasma, 15 h). For the same compound, the “conversion of 4a into 5a” value is listed as “complete conversion” in data set [2] (serum, 15 h) and “complete conversion” in data set [2] (whole blood, 15 h).

The compound `CC(C)CCC[C@@H](C)[C@H]1CCC2C3C(CC[C@@]21C)[C@@]1(C)CC[C@H](O)C[C@@]1(O)[C@@H]3C=O` (stereo partly drawn) [5a, 3β-Hydroxy-5β-hydroxy-B-norcholestane-6β-carboxaldehyde] came in with an IC50 in data set [3] of 12.6 ± 1.9 µM. Moreover, in data set [4], the “decrease of amount that can be extracted from plasma” value was “about 5 % per day”.
